{
  "source": "patent US6583106B2",
  "about": "“Monohydric alcohol derived urethanes and their use in cosmetic formulations” (Alzo International, Inc., priority 1997, dated 2003)",
  "key": {"[1]": {"assay": "Mono- and diester stability study (acid value after heat/reflux and pH variation)", "assay_type": "physicochemical", "conditions": "before treatment; A.O.C.S. T.M. #Cd 3a-63", "procedure": "(§1) The following stability study was conducted to determine the structural stability of dimeric urethane compounds according to the present invention compared to mono- and diesters under conditions of pH and thermal variation. Because the decomposition products of the mono- and diesters are alcohol and acid, the degree of decomposition may be accurately determined by measuring the acid value. The measurable decomposition product of the urethane compound is alcohol, which is accurately measured by determining the hydroxyl value.\nIII. Procedure for Determining Mono- or Diester Stability\nThe following steps were performed on each ester sample:\n(2) Into three ground glass Erlenmeyer flasks, weigh a 20 g sample of the ester.\n(3) Into each flask, pipette 50 ml of a neutralized (to phenolpthalein end point) Solution of 70% Isopropanol in water. Boiling stones are added.\n(4) Connect flask A to a 4-5 ft. Reflux condenser and heat so that it refluxes 1 ft. High (to approximately 80-90° C.). After connecting flasks A, B and C, proceed to step (7).\n(5) Add 10% Aq. Hcl solution to adjust pH of solution in flask B to pH=2.5-3.5. See step (4).\n(6) Add 20% Aq. KOH Solution to adjust pH of solution in Flask C to pH=13-14. See step (4).\n(8) For each flash, A, B and C, disconnect condenser. Pour Alcoholic solution into wide diameter beaker (A, B and C). Add spin bar. […]"}, "[2]": {"assay": "Urethane stability study (hydroxyl value after heat/reflux and pH variation)", "assay_type": "physicochemical", "conditions": "before treatment; A.O.C.S. hydroxyl value method", "procedure": "as §1\nIV. Procedure for Urethane Stability\nThe following steps were performed on each urethane sample:\n(1) Run hydroxyl value test.\n(2) Follow steps 2-8 for mono- and diester (above).\n(3) Run hydroxyl value test on solution in beaker A.\n(4) Perform step 10, from above.\n(5) Run hydroxyl value test on solution in Beaker B and Beaker C.\nUnder conditions of this study, that is,\n“A”: Product in alcoholic/water solution, heat\n“B”: Product in alcoholic/water solution, heat, pH=2.5-3.5\n“C”: Product in alcoholic/water solution, heat, pH=13-14"}},
  "data": [
    {"compound": "CC(C)OC(=O)CCCCC(=O)OC(C)C", "note": "[DIA, Diisopropyl adipate]", "values": [
      {"measurement": "ACID V INITIAL", "setting": "[1]", "result": 0.26, "unit": "mg KOH/g"}
    ]},
    {"compound": "Isocetyl alcohol dimer with IPDI [Monoderm I-16]", "values": [
      {"measurement": "HYDROXYL V INITIAL", "setting": "[2]", "result": 7.3, "unit": "mg KOH/g"}
    ]},
    {"compound": "CCCCC(CC)COC(=O)NCC1(C)CC(NC(=O)OCC(CC)CCCC)CC(C)(C)C1", "note": "(stereo not drawn) [Monoderm I-8, 2-ethyl hexanol dimer with IPDI]", "values": [
      {"measurement": "HYDROXYL V INITIAL", "setting": "[2]", "result": 10.3, "unit": "mg KOH/g"}
    ]},
    {"compound": "Diisopropyl dilinoleate [DID]", "values": [
      {"measurement": "ACID V INITIAL", "setting": "[1]", "result": 0.32, "unit": "mg KOH/g"}
    ]},
    {"compound": "Isostearyl alcohol dimer with IPDI [Monoderm I-18]", "values": [
      {"measurement": "HYDROXYL V INITIAL", "setting": "[2]", "result": 5.3, "unit": "mg KOH/g"}
    ]},
    {"compound": "Octyl dodecanol dimer with IPDI [Monoderm I-20]", "values": [
      {"measurement": "HYDROXYL V INITIAL", "setting": "[2]", "result": 16.1, "unit": "mg KOH/g"}
    ]}
  ]
}
